“Also recorded” adds a separate entry of the source. No end group written: not given here.
Legend:
hNaV1.4 = experiment: Automated whole-cell patch clamp, hNaV1.4 + β1 in HEK 293 cells; assay type: cell-based, human; conditions: 3 μM, 50 ms pulse to −20 mV from −90 mV, ECS with 0.1% BSA, at least 2 min
Experimental: To examine for off-target activity on mammalian ion channels and receptors, we first tested the activity of sHt1a and Gg1a against human NaV channels. Whole-cell patch-clamp recordings were performed on Human Embryonic Kidney (HEK) 293 cells stably expressing human NaV1.4 or NaV1.5 in conjunction with the β1 subunit (SB Drug Discovery, Glasgow, United Kingdom) using a QPatch II automated electrophysiology platform (Sophion Bioscience, Ballerup, Denmark). Whole-cell currents were filtered at 8 kHz and acquired at 25 kHz. The linear leak was corrected by P/4 subtraction (leak potential −90 mV, leak sweep amplitude 10%). Series resistance across recorded cells ranged between 5 and 10 MΩ. The extracellular solution (ECS) consisted of (in mM): 145 NaCl, 4 KCl, 2 CaCl2, 1 MgCl2, 10 HEPES, and 10 glucose, adjusted to pH 7.4 with NaOH and to 305 mOsm/L with sucrose. The intracellular solution (ICS) consisted of (in mM): 140 CsF, 1 EGTA, 5 CsOH, 10 HEPES, and 10 NaCl, adjusted to pH 7.3 with CsOH and 320 mOsm/L with sucrose. Currents were elicited from a holding potential of −90 mV delivered with a 50 ms depolarising pulse to −20 mV every 20 s (0.05 Hz). Peptides were diluted in ECS containing 0.1% BSA and applied to cells for at least 2 min at the concentrations stated. Peak currents were normalised to the buffer control.

honeybees = experiment: Topical application of synthetic peptides to honeybees (off-target); assay type: in vivo, Apis mellifera; conditions: 25 μg peptide per honeybee (52-fold the mite dose) in 2% Silwet (v/v), n = 10 workers per group, 3 repeats, vs 2% Silwet control
Text: If sprayed within a beehive, the varroacidal peptides would need to lethal for V. destructor, but safe for the honeybees. To evaluate potential off-target activities of the varroacidal peptides, we first needed to quantify how much larger the body surface of the bees is in comparison to the mites to understand how much more of the varroacidal peptides they would receive when being sprayed. Assuming an elliptical body shape of V. destructor, the surface area can be calculated according to the following formula: A=π×a×b×2
This also means that if we evenly applied these peptides via spraying at a certain concentration to both bees and mites, then the bees would receive a 34-fold higher peptide quantity due to their correspondingly higher surface area.
To allow for an additional safety margin, we topically applied 25 μg of each peptide per bee, which is 52-fold more than the 0.48 μg that each varroa mite received. The effects of sHt1a and sGg1a were tested on honeybees kept in plastic containers in the laboratory. The containers consisted of 250 ml polypropylene round cups with a 52 mm diameter hole cut into the bottom, covered with a 68 mm diameter circle of all-purpose cloth (brand: Peggy Perfect) hot glued to the edge of the hole on the outside of the cup (Supplementary Fig. 3). A 14 mm diameter hole was cut in the lid of the cup to insert a 5 mL syringe which served as feeder. The syringe was filled with 50% sucrose solution, and its tip was cut off to facilitate solution intake by the bees. Honeybee workers were obtained from a comb with emerging individuals placed in an incubator set to 34.5 °C and 70% humidity. The next day, groups of 10 freshly emerged workers were collected, introduced into the prepared cages and placed back in the incubator overnight. The next morning, peptide and control solutions to be tested were freshly prepared from the stock solutions stored at 4 °C. Then, the bees were sedated with CO2 gas until they stopped moving. Immediately after all bees stopped moving, the plastic lid was removed, and 15 µL of testing solution (containing 2% Silwet (v/v) or 25 μg of each peptide per bee) was topically applied on each of the 10 bees per group. The solution was applied on the abdomen or thorax, but not on the wings or head of the individuals. Following treatment, the worker bees were allowed to recover from the sedation and the containers with the bees were put back in the incubator, with mortality being manually checked daily. At the end of each experiment, all arthropods were euthanised by freezing at −20 °C.

Row | Substance | effect on hNaV1.4 currents (hNaV1.4) | effect on hNaV1.4 currents (hNaV1.4; listed as sHt1a) | honeybee mortality/survival (honeybees) | honeybee mortality/survival (honeybees; listed as sHt1a) | effect on hNaV1.4 currents (hNaV1.4; listed as sGg1a) | honeybee mortality/survival (honeybees; listed as sGg1a)
1 | KYCAPRKAVCNTPADCCDKSSRCAYPNYGLGYYLDSEFFGKRKICSWRL (also: bicyclic or more (positions not given here)) [Ht1a, μ-gradutoxin-Ht1a] | inactive | did not significantly affect | innocuous to honeybees | neither peptide caused more mortality; also recorded: did not alter honeybee survival |  | 
2 | U1-macrothelitoxin-Gg1a | inactive |  | innocuous to honeybees |  | did not significantly affect | neither peptide caused more mortality; also recorded: did not alter honeybee survival
